Assay results from ChEMBL document CHEMBL1157539, “Thousands of chemical starting points for antimalarial lead identification” (Nature, 2010).
Where a name gives a salt, the structure may show the parent alone. Non-standard residues stand in square brackets, D forms with d. Residues, ends and D or L forms follow the SMILES beside them. *: point of attachment. Butanoyl(4-(4-HOPh)) = O=C(CCCc1ccc(O)cc1)*; Boc = CC(C)(C)OC(=O)*

tested on: Plasmodium falciparum; test: GSK_TCMDC: Inhibition of Plasmodium falciparum 3D7 in whole erythrocytes, using parasite LDH activity as an index of growth.; format: functional, organism-based; conditions: not given

Row | Structure (SMILES) | XC50 [µM]
1 | CCOc1ccc2nccc([C@@H](O)[C@@H]3C[C@@H]4CCN3C[C@@H]4CC)c2c1 [ETHYLHYDROCUPREINE HYDROCHLORIDE] | 0.113
2 | CCOc1ccc2nccc([C@@H](O)[C@@H]3C[C@@H]4CCN3C[C@@H]4CC)c2c1 [ETHYLHYDROCUPREINE] | 0.612
3 | CN(Cc1cnc2nc(N)nc(N)c2n1)c1ccc(C(=O)N[C@@H](CCC(=O)O)C(=O)O)cc1 [METHOTREXATE] | 0.178
4 | COc1ccc(C[C@H](N)C(=O)N[C@H]2[C@@H](O)[C@H](n3cnc4c(N(C)C)ncnc43)O[C@@H]2CO)cc1 [PUROMYCIN] | 0.174
5 | CCc1nc(N)nc(N)c1-c1ccc(Cl)cc1 [PYRIMETHAMINE] | 0.0318
6 | C=C[C@H]1CN2CC[C@H]1C[C@H]2[C@H](O)c1ccnc2ccc(OC)cc12 [QUININE HYDROCHLORIDE] | 0.0952

same assay, conditions: Plasmodium falciparum, 3D7

Row | Structure (SMILES) | XC50 [µM]
7 | O=[N+]([O-])c1ccc(Nc2nc(N/N=C/c3ccc(-c4ccc([N+](=O)[O-])cc4)o3)nc(Nc3ccccc3)n2)cc1 | 0.64
8 | COC(=O)CCCCOc1cc(Cc2cnc(N)nc2N)cc(OC)c1OC | 0.173
9 | O=C(Cn1c(CCc2cccc(F)c2F)nc(=O)c2ccccc21)N(Cc1ccc(-c2ccc(C(F)(F)F)cc2)cc1)C1CCN(C2CCOCC2)CC1 | 0.745
10 | COc1ccc(CC2(CO)CCN(Cc3ccc(O)c(Cl)c3)CC2)cc1 | 0.859
11 | CC(CN1CCN(C)CC1)C(=O)Nc1ccc(-c2csc(-c3nc4ccccc4[nH]3)c2)cc1 (configuration not stated) | 0.837
12 | CCCc1ccc(Nc2nc(C)cc(N(CC)CCCN3CCCCC3)n2)cc1 | 0.543
13 | Nc1nccc2ccc(-c3ccncc3)cc12 | 0.249
14 | O=C(Nc1ccc(CN2CCOCC2)cc1)c1ccc(-c2ccc(Cl)cc2)o1 | 0.862
15 | CCCc1cc(Cc2cnc(N)nc2N)cc(CC)c1OC | 0.821
16 | Clc1ccc2c(NCc3ccccn3)ccnc2c1 | 0.664
17 | CC(C)C1C(=O)N(S(C)(=O)=O)C2CCN(C(=O)c3ccc(CN4CCCCC4)c([N+](=O)[O-])c3)C12 (configuration not stated) | 0.62
18 | CCC(C)NS(=O)(=O)c1ccc2nc(Nc3cccc(SC)c3)n(C(C)C(C)C)c2c1 (configuration not stated) | 0.503
19 | Cc1cc(C)c(O)c(-c2cc(C(=O)Nc3ccc(S(=O)(=O)N4CC(C)OC(C)C4)cc3)[nH]n2)c1 (configuration not stated) | 0.664
20 | Cc1cc(N[C@@H](Cc2ccccc2)C(=O)NC2CCCC2)nc(NCCc2ccc(F)cc2)n1 | 0.803
21 | O=C(Cc1ccc[n+]([O-])c1)Nc1cccc(-c2cccc(-c3nc4cc(C(F)(F)F)ccc4[nH]3)c2)c1 | 0.784
22 | CCCCNc1c(CC)c(C)c(C#N)c2nc3ccccc3n12 | 0.385
23 | N=C(N)c1ccc(Nc2nccc(Nc3nc(-c4ccccc4)cs3)n2)cc1 | 0.754
24 | CS(=O)(=O)c1cccc(-c2cnc3[nH]cc(-c4ccc(C(=O)O)cc4)c3c2)c1 | 0.335
25 | Cc1cccc2nc(-c3cccc(-c4cccc(NC(=O)COc5ccccc5C(N)=O)c4)c3)[nH]c12 | 0.161
26 | CCCCN1CCCN(Cc2cccc(NC(=O)c3ccc(-c4ccccc4)cc3)c2)CC1 | 1.03
27 | CC1(C)N=C(N)N=C(N)N1c1cccc(Cl)c1 | 0.0379
28 | COc1ccc2[nH]ccc(=NN=Cc3ccc(N(C)C)cc3)c2c1 | 0.799

Row | Structure (SMILES) | XC50 [µM]
29 | COc1ccc(Cl)cc1N1CCN(CCCNC(=O)c2ccc(-c3nc4cc(Cl)c(Cl)cc4[nH]3)c(C)c2)CC1 | 0.866
30 | CC(C)N(Cc1cnc2nc(N)nc(N)c2n1)c1ccc(Cl)c(Cl)c1 | 0.158
31 | Cc1nc(-c2ccc(-c3ccc(C(=O)Nc4ccc(Cl)c(N5CCN(C)CC5)c4)cc3)c(C)c2)no1 | 0.743
32 | COc1ccc(-c2cccc(NC(=O)c3ccc(Cl)cc3)c2)cc1CN1CCCN(C)CC1 | 0.387
33 | Cc1c(-c2cccc(Br)c2)[nH]c2nc(N)nc(N)c12 | 0.743
34 | O=C(Nc1nc2cc(S(=O)(=O)NCCc3ccc(F)cc3)ccc2n1CCCn1ccnc1)c1ccc(Cl)cc1 | 1.11
35 | O=C(c1ccc(F)c2ccccc12)N1CCc2cc3nccc(N4CCN5CCC[C@H]5C4)c3cc21 | 1
36 | O=C(Nc1cccc(CN2CCCN(Cc3ccc(O)cc3)CC2)c1)c1ccc2ccccc2c1 | 0.373
37 | CNCCCn1c(N(C)C)nc2cc(-n3cnc4cc(-c5ccc(Cl)cc5)sc4c3=O)ccc21 | 1.14
38 | Cc1ccc(C(=O)Nc2cccc(CN3CCCN(Cc4ccc(O)cc4)CC3)c2)cc1 | 1.09
39 | COc1ccc2[nH]ccc(=NN=Cc3cccnc3)c2c1 | 0.501
40 | C=CCCCNCC(NCCCNc1cc(=O)c2ccccc2[nH]1)c1cc(Br)cc(Br)c1 (configuration not stated) | 0.893
41 | O=C(Nc1ccc(-c2cncc(NCCCN3CCCC3)c2)cc1)c1ccccc1 | 0.939
42 | CCCCCCCCNCc1c(O)ccc2ccccc12 | 0.739
43 | COc1ccc(C2c3cc(OC)c(OC)cc3C(=NO)C2C)cc1OC (configuration not stated) | 1.17
44 | NOCCCCOc1ccc(Cl)cc1 | 0.785
45 | CC(C)Oc1cc2c(cc1NS(=O)(=O)c1ccc(-c3cccs3)cc1)CCN(C)CC2 | 0.961
46 | Fc1ccc(CNc2nc(-c3ccc(F)c(C(F)(F)F)c3)n(-c3cccc(C(F)(F)F)c3)n2)cc1 | 0.563
47 | COC(=O)c1cccc(CNCc2cccc(-c3ccc(-c4nc5ccccc5[nH]4)cc3)c2)c1 | 0.354
48 | COC(=O)CC[C@H](NC(=O)[C@H](C)NC(=O)OC(C)(C)C)C(=O)OC (Boc-Ala-Glu(OMe)-OMe) | 0.819
49 | O=C(NCC(=O)N1CCC[C@H]1C(=O)O)[C@@H](Cc1ccccc1)NC(=O)[C@@H]1CCCN1C(=O)CCCc1ccc(O)cc1 ({Butanoyl(4-(4-HOPh))}-P[dF]GP-OH) | 1.05
50 | NC12CC3CC(CC(C3)C1)C2 [AMANTADINE] | 0.164

Row | Structure (SMILES) | XC50 [µM]
51 | COc1ccc(C[C@H]2NC[C@H](O)[C@H]2OC(C)=O)cc1 [ANISOMYCIN] | 0.138
52 | CO/C=C(/C(=O)OC)c1ccccc1Oc1cc(Oc2ccccc2C#N)ncn1 [AZOXYSTROBIN] | 0.0405
53 | O=P(O)(O)Oc1c(Br)cc(Br)cc1-c1cc(Br)cc(Br)c1O [BROMOFENOFOS] | 0.173
54 | CC1=CC(=O)[C@@H](O)[C@]2(C)[C@H]3[C@@]4(O)OC[C@@]35[C@@H](C[C@@H]12)OC(=O)C[C@H]5[C@@H](C)[C@H]4O [CHAPARRINONE] | 0.347
55 | CCN(CC)CCCC(C)Nc1ccnc2cc(Cl)ccc12 (configuration not stated) [CHLOROQUINE PHOSPHATE] | 0.178
56 | C=C[C@H]1CN2CC[C@H]1C[C@H]2[C@H](O)c1ccnc2ccccc12 [CINCHONIDINE] | 0.172
57 | C=C[C@H]1CN2CC[C@H]1C[C@@H]2[C@@H](O)c1ccnc2ccccc12 [CINCHONINE] | 0.766
58 | C[C@@H]1C[C@@H]([C@H](O)CC2CC(=O)NC(=O)C2)C(=O)[C@@H](C)C1 [CYCLOHEXIMIDE] | 0.527
59 | O=c1ccc2ccc(O)c(O)c2o1 [DAPHNETIN] | 0.0322
60 | CCC1=C(CC2NCCc3cc(OC)c(OC)cc32)CC2c3cc(OC)c(OC)cc3CCN2C1 (configuration not stated) [DIHYDROEMETINE] | 0.312
61 | CCC(Cc1cnc2nc(N)nc(N)c2n1)c1ccc(C(=O)N[C@@H](CCC(=O)O)C(=O)O)cc1 (some centres not stated) [EDATREXATE] | 0.0367
62 | Cc1c2ccncc2c(C)c2c1[nH]c1ccccc12 [ELLIPTECINE] | 0.796
63 | CC[C@H]1CN2CCc3cc(OC)c(OC)cc3[C@@H]2C[C@@H]1C[C@H]1NCCc2cc(OC)c(OC)cc21 [EMETINE] | 0.214
64 | CCOc1cc(Cc2cnc(N)nc2N)cc(OCC)c1-n1cccc1 [EPIROPRIM] | 0.761
65 | CN(C)c1cc2c(Nc3ccc4nc(Cc5ccccc5)[nH]c4c3)ncnc2cn1 [GW301888X] | 1.14
66 | Cc1ccc(O)cc1Nc1ccnc2cc(-c3ccccn3)ccc12 [GW440139A] | 0.761
67 | CS(=O)(=O)CCNCc1ccc(-c2ccc3ncnc(Nc4ccc(OCc5ccccc5)c(Cl)c4)c3c2)o1 [GW574783B] | 0.557
68 | Nc1ncnc2occ(-c3ccc(NC(=O)Nc4cc(C(F)(F)F)ccc4F)cc3)c12 [GW770249A] | 1.72
69 | CCS(=O)(=O)Nc1ccc2c(c1)/C(=C(/Nc1ccc(CN3CCCCC3)cc1)c1ccccc1)C(=O)N2 [HESPERADIN] | 0.0565
70 | COc1c(O)cc2oc(-c3ccc(O)cc3)cc(=O)c2c1O [HISPIDULIN] | 0.771
71 | CCN(CCO)CCCC(C)Nc1ccnc2cc(Cl)ccc12 (configuration not stated) [HYDROXYCHLOROQUINE SULFATE] | 0.762
72 | O=C(Nc1cc(C(F)(F)F)cc(C(F)(F)F)c1)c1cc(Cl)ccc1O [IMD-0354] | 1.31

Row | Structure (SMILES) | XC50 [µM]
73 | O=C(Nc1cccc(C2=NCCN2)c1)Nc1cccc(C2=NCCN2)c1 [IMIDOCARB] | 0.419
74 | c1ccc([C@H]2CN3CCSC3=N2)cc1 [LEVAMISOLE] | 0.622
75 | CN(Cc1cnc2nc(N)nc(N)c2n1)c1ccc(C(=O)N[C@@H](CCC(=O)O)C(=O)O)cc1 [METHOTREXATE] | 0.1
76 | Cc1nc(N)nc(N)c1-c1ccc(Cl)c(Cl)c1 [METOPRINE] | 0.0796
77 | CC(C)=CCc1c(-c2ccc(O)cc2O)oc2c3c(cc(O)c2c1=O)OC(C)(C)C=C3 [MORUSIN] | 0.977
78 | CCCCCCCC/C=C\CCCCCCCC(=O)NCc1ccc(O)c(OC)c1 [OLVANIL] | 0.402
79 | Cc1nc2ccc3ccc(CNc4ccc5c(c4)CN([C@@H](CCC(=O)O)C(=O)O)C5=O)cc3c2c(=O)[nH]1 [OSI-7904] | 0.164
80 | CCCCc1ccc2[nH]c(NC(=O)OC)nc2c1 [PARBENDAZOLE] | 0.683
81 | CCN(CC)CCOc1ccc(Nc2ncc3cc(-c4c(Cl)cccc4Cl)c(=O)n(C)c3n2)cc1 [PD-0166285] | 1.18
82 | N=C(N)c1ccc(OCCCCCOc2ccc(C(=N)N)cc2)cc1 [PENTAMIDINE HYDROCHLORIDE] | 0.14
83 | Cc1[nH]c(/C=C2\C(=O)Nc3ccc(S(=O)(=O)Cc4c(Cl)cccc4Cl)cc32)c(C)c1C(=O)N1CCC[C@@H]1CN1CCCC1 [PHA-665752] | 0.72
84 | COc1ccc(OC)c(Cc2cnc3nc(N)nc(N)c3c2C)c1 [PIRITREXIM] | 0.0102
85 | COc1cc2c(cc1O)[C@@H]1[C@H](O)[C@@H](O)C=C3CCN(C2)[C@H]31 [PSEUDOLYCORINE] | 0.991
86 | CCc1nc(N)nc(N)c1-c1ccc(Cl)cc1 [PYRIMETHAMINE] | 0.0595
87 | C=C[C@H]1CN2CC[C@H]1C[C@@H]2[C@@H](O)c1ccnc2ccc(OC)cc12 [QUINIDINE] | 0.118
88 | C=C[C@H]1CN2CC[C@H]1C[C@H]2[C@H](O)c1ccnc2ccc(OC)cc12 [QUININE HYDROCHLORIDE] | 0.145
89 | c1ccc(-c2cccc(-c3ccccn3)n2)nc1 [TERPYRIDINE] | 0.901
90 | c1ccc(CC2=NCCN2)cc1 [TOLAZOLINE HYDROCHLORIDE] | 0.188
91 | CN1CCC(COC(=O)C(O)(c2ccccc2)c2ccccc2)C1 (configuration not stated) [TRICLAZATE] | 0.997
92 | COc1cc(Cc2cnc(N)nc2N)cc(OC)c1OC [TRIMETHOPRIM] | 0.755
